# Laboratory results as given in US9458118B2, “Sodium channel modulators for the treatment of pain and diabetes” (CHROMOCELL CORPORATION, priority 2013, dated 2016).
# Test system: rats
# Test: Acetic acid writhing model in rats
# Assay type: in vivo, rat
# Settings: doses of 10 to 30 mg/kg, intraperitoneal route
# Procedure: The Acetic Acid Writhing Model is associated with visceral pain (abdominal pain, such as stomach pain, and pain caused by, for example, bile duct congestion and kidney stones). A writhing test assesses acute peritoneovisceral pain.
# After acclimation of 2-3 days, a test compound, positive control or vehicle control was administered by intraperitoneal injection (i.p.) or by oral gavage 15-30 minutes prior to administration of acetic acid. The time of administration of test compound was recorded. For mice: Method A: 0.6% Acetic acid solution in saline was injected i.p. in a volume of 10 ml/kg; Method B: 1.2% Acetic acid solution in saline was injected i.p. in a volume of 5 ml/kg. For rats: 4% acetic acid in saline was injected i.p in a volume of 2 ml/kg at T=0 minutes. Each animal was placed in a clear plastic cage. At T=5 minutes, the number of writhing movements was counted over a 45 minute period. Alternatively, the writhing movements were counted over a 5-minute period and repeated every 5 minutes, starting at T=5 minutes over a 45-minute period.
# For each compound tested, the individual score was obtained by calculating the accumulated writhing movements for the time period studied. […]
smiles,measurement,value
"O=C(O)CNC(=O)c1cc(-c2cc(Cl)ccc2Oc2cc(F)c(S(=O)(=O)Nc3ncns3)cc2Cl)ccn1 [Compound 2, 2-(4-(2-(4-(N-(1,2,4-thiadiazol-5-yl)sulfamoyl)-2-chloro-5-fluorophenoxy)-5-chlorophenyl)picolinamido)acetic acid]",reduction in pain (writhing) relative to vehicle control,48-58%
